One series is described as follows: Solubility. It counts as physicochemical.
A short description of series [1]: Blood glucose and organ glycogen upon predetermined (2.5 h) cold treatment (adaptation experiment). It counts as in vivo, mice. The settings on record: no adaptation, preparation 1 hour prior to the testing effect, 2.5 h at -14° C.
The nature of series [2]: Toxicity upon intraperitoneal administration. Particulars: mouse, in vivo, ip.

The results in this text go back to patent US4691046A, “Butanedioic acid mono [(2-dimethylamino] ethyl ester)succinate” (Institut Organicheskoi Khimii Ordena Lenina I Ordena …, priority 1986, dated 1987).

As a reminder, the LD50 is the dose at which mortality reaches 50%.

On to `CN(C)CCOC(=O)CCC(=O)O` [Compound of this invention, butanedioic acid mono[(2-dimethylamino)ethyl ester]succinate], for which the solubility in acetone entry in “Solubility” (acetone) is recorded as “sparingly soluble”. The solubility in ethanol result in the series “Solubility” (ethanol) is reported as “sparingly soluble”. In addition, in “Solubility” (water), the solubility in water result is on record as “well soluble”. Also, the “Glycogen, heart” value in series [1] (control 1.7 ± 0.2) worked out at 2.2 ± 3.4 mg/g. Also, the “Glycogen, liver” value in series [1] (control 6.7 ± 0.4) came out at 7.1 ± 2.6 mg/g. The compound further registered a Blood glucose in series [1] (control 37 ± 6) of 59 ± 2.6 mg. %. Besides, in series [2], the LD50 was determined as 3040 mg/kg.
